Test [1] in a line: Sulforhodamine B (SRB) growth inhibition / cytotoxicity assay. In kind it is cell-based. The settings on record: SRB growth arrest assay; cell line not stated. The protocol:
A growth inhibition assay was also employed for the evaluation of candidate HSP90 inhibitors:
• 1) Determine cell number by haemocytometer. • 2) Using an 8 channel multipipettor, add 160 μl of the cell suspension (3600 cells/well or 2×10^4 cells/ml) to each well of a 96-well microtitre plate. • 3) Incubate overnight at 37° C. in a CO2 incubator. Day 2 • 4) Stock solutions of drugs are prepared, and serial dilutions of each drug are performed in medium to give final concentrations in wells. • 5) Using a multipipettor, 40 μl of drug (at 5× final concentration) is added to quadruplicate wells. • 6) Control wells are at either side of the 96 well plates, where 40 μl of medium is added. • 7) Incubate plates in CO2 incubator for 4 days (48 hours). Day 6 • 8) Tip off medium into sink and immerse plate slowly into 10% ice cold trichloroacetic acid (TCA). […] Leave for 15 mins. • 12) Wash off unbound SRB stain with four washes of 1% acetic acid. • 13) Dry plates in incubator. • 14) Solubilise SRB using 100 μl of 10 mM Tris base and put plates on plate shaker for 5 mins. • 15) Determine absorbance at 540 nm using a plate reader. Calculate mean absorbance for quadruplicate wells and express as a percentage of value for control, untreated wells. • 16) Plot % absorbance values versus log drug concentration and determine the IC50.

For test [2], the target named is T1, yeast HSP90 (Saccharomyces cerevisiae, UniProt P02829).
T1 construct: made in house; host or cells: E. coli
In words: Malachite green ATPase assay. The format is biochemical. The settings on record: activity range. An excerpt:
The intrinsic ATPase activity of HSP90 may be measured using yeast HSP90 as a model system. The assay, based on the use of malachite green for the measurement of inorganic phosphate, was used to test the HSP90 inhibitory activity of the compounds of the Examples herein.
Malachite Green ATPase Assay
Chemicals are of the highest purity commercially available and all aqueous solutions are made up in AR water. Because of the need to minimise contamination with inorganic phosphate, precautions should be taken with solutions and apparatus used in the assays. Glassware and pH meters are rinsed with double distilled or deionised water before use and, wherever possible, plastic ware should be used. Gloves are worn for all procedures. • (1) Greiner 384-well (Greiner 781101) or Costar 384-well flat-bottomed polystyrene multiwell plates (VWR). • (2) Assay buffer of (a) 100 mM Tris-HCl, pH 7.4, (b) 150 mM KCI, (c) 6 mM MgCl2. Stored at room temperature. • (3) 0.0812% (w/v) malachite green (M 9636, Sigma Aldrich Ltd., Poole, UK). Stored at room temperature. • (4) 2.32% (w/v) polyvinyl alcohol USP (P 1097, Sigma Aldrich Ltd, Poole, UK) in boiling water (see Comment 1), allowed to cool, and stored at room temperature. • (5) 5.72% (w/v) ammonium molybdate in 6 M hydrochloric acid. Stored at room temperature. • (6) 34% (w/v) sodium citrate. Stored at room temperature. • (7) 100 mM ATP, disodium salt, special quality (47699, Sigma Aldrich). Stored at −20° C. • (8) E. coli expressed yeast HSP90 protein, purified >95% (see, e.g., Panaretou et al., 1998) and stored in 50 uL aliquots at −80° C. Method • 1. Dilute test compounds to 500 μM in AR water (DMSO concentration will be 2.5%). Transfer 2.5 μl of these compounds directly from the daughter plate to the assay plate, giving a final assay concentration of 100 μM. To obtain 12 point IC50 values, perform serial dilutions 1:2 to produce a range of assay concentrations from 100 μM to 97.6 nM (2.5% DMSO), and transfer 2.5 μl of each concentration into the assay plate. Column 1 in the assay plate contains no compound, as a negative control. An additional row with no compound is also used as a background. • 2. Prepare ATP by diluting 100 mM stock to 925 μM with assay buffer, and aliquot 5 μl of diluted ATP to each well including controls (final assay concentration 370 μM). • 3. Add 5 μl of buffer to background row. • 4. Dilute enzyme preparation to 1.05 μM with assay buffer, and aliquot 5 μl into each compound well and to the negative control column. • 5. Collect the reagents to the bottom of the well, cover plate with plate seal and incubate overnight at 37 degC. • 6. First thing in the morning prepare the Malachite Green Reagent. Add 2 parts of Malachite Green Solution, 1 part of Polyvinyl Alcohol Solution, 1 part of Ammonium Molybdate Solution, and 2 parts of AR water. • 7. Invert to mix, and leave for approximately 1 hour until the colour turns from brown to golden yellow. • 8. Add 40 μl of Malachite Green Reagent to each well, allow 5 mins for colour to develop. • 9. Add 5 μl of Sodium Citrate Reagent to each well (see comment 2) • 10. Re-cover with plate seal and shake on plate shaker for at least 15 mins. • 11. Measure Absorbance at 620 nm using a suitable plate reader (e.g. Victor, Perkin Elmer Life Sciences, Milton Keynes, UK). […] Comments • (1) The polyvinyl alcohol dissolves in boiling water with difficulty and stirring for 2-3 h is required. • (2) The time interval between addition of the malachite green reagent and the sodium citrate should be kept as short as possible in order to reduce the non-enzymatic hydrolysis of ATP. Once the sodium citrate is added, the colour is stable for up to 4 h at room temperature. • (3) Compounds can be added to the assay plates using a Biomek FX Robot (Beckman Coulter).

The source of these data is patent publication US7803831B2, “3-(2-hydroxy-phenyl)-1H-pyrazole-4-carboxylic acid amide derivatives as HSP90 inhibitors for the treatment of cancer” (Vernalis (Cambridge) Limited, priority 2002, dated 2010).

In general, IC50 refers to the midpoint of a concentration-inhibition curve. Higher therefore signals a need for much substance.

T1 sequence (P02829 whole entry, looked up): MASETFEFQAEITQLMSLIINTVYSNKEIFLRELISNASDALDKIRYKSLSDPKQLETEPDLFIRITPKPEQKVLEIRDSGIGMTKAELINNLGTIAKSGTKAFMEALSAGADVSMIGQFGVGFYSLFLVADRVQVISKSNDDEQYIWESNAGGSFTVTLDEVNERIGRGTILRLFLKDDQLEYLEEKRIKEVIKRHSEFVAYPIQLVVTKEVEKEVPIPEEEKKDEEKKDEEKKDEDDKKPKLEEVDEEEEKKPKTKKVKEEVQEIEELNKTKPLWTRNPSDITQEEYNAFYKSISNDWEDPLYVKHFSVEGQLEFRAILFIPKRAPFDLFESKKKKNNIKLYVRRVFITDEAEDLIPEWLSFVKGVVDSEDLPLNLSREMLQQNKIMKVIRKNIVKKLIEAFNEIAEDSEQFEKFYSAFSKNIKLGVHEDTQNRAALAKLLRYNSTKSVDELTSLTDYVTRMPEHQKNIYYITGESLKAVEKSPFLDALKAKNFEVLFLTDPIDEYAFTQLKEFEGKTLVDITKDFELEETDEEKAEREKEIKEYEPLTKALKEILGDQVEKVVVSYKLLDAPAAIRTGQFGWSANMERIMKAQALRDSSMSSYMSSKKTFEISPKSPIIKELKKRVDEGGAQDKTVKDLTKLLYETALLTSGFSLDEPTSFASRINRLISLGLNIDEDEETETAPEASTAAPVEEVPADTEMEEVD

Consider `CC(=O)c1ccc(NC(=O)c2c[nH]nc2-c2cc(Cl)c(O)cc2O)cc1` [Example 1, 3-(5-chloro-2,4-dihydroxy-phenyl)-1H-pyrazole-4-carboxylic acid (4-acetyl-phenyl)-amide], for which, in test [1], the IC50 was above 50 µM.
Consider `O=C(Nc1ccccc1)c1c[nH]nc1-c1cc(Cl)c(O)cc1O` [Example 2], for which, in test [2], the concentration for half-maximal inhibition (IC50) is above 50 µM.
Regarding `O=C(c1c[nH]nc1-c1cc(Cl)c(O)cc1O)N1CCN(c2ccccc2)CC1` [Example 3], in test [2], the IC50 is above 50 µM.
In test [2], `C=CCNC(=O)c1c[nH]nc1-c1cc(Cl)c(O)cc1O` [Example 4] registered an IC50 above 50 µM.
In test [2], `O=C(c1c[nH]nc1-c1cc(Cl)c(O)cc1O)N1CCOCC1` [Example 5] returned an IC50 above 50 µM.
On the same count and under the same terms, for `CN1CCN(C(=O)c2c[nH]nc2-c2cc(Cl)c(O)cc2O)CC1` [Example 6] the value was above 50 µM; for `O=C(NCCCN1CCOCC1)c1c[nH]nc1-c1cc(Cl)c(O)cc1O` [Example 7], above 50 µM; for `O=C(Nc1ccccn1)c1c[nH]nc1-c1cc(Cl)c(O)cc1O` [Example 8], above 50 µM.
For the compound `O=C(NCc1ccco1)c1c[nH]nc1-c1cc(Cl)c(O)cc1O` [Example 9], the IC50 in test [2] was below 50 µM.
Take `O=C(NCCc1cccs1)c1c[nH]nc1-c1cc(Cl)c(O)cc1O` [Example 10]: the IC50 in test [2] was below 50 µM.
Turning to `O=C(NCCN1CCOCC1)c1c[nH]nc1-c1cc(Cl)c(O)cc1O` [Example 11], the concentration for half-maximal inhibition (IC50) in test [2] is above 50 µM.
Turning to `O=C(NCCCO)c1c[nH]nc1-c1cc(Cl)c(O)cc1O` [Example 12], the 50% inhibitory concentration (IC50) in test [2] was above 50 µM.
The same measure, in the same setting: the value for `O=C(Nc1ccc(O)cc1)c1c[nH]nc1-c1cc(Cl)c(O)cc1O` [Example 13] was below 50 µM.
The same measure, in the same setting: for `COc1cccc(NC(=O)c2c[nH]nc2-c2cc(Cl)c(O)cc2O)c1` [Example 14] the value was below 50 µM; for `O=C(Nc1ccc2c(c1)OCCO2)c1c[nH]nc1-c1cc(Cl)c(O)cc1O` [Example 15], below 50 µM.
For the compound `O=C(Nc1ccc(O)c(O)c1)c1c[nH]nc1-c1cc(Cl)c(O)cc1O` [Example 16], in test [2], the IC50 is above 50 µM.
Take `COc1ccc(NC(=O)c2c[nH]nc2-c2cc(Cl)c(O)cc2O)cc1` [Example 17]: in test [2], the IC50 was below 50 µM.
The same measure, in the same setting: for `O=C(Nc1ccc(Cl)cc1)c1c[nH]nc1-c1cc(Cl)c(O)cc1O` [Example 18] the value was above 50 µM.
In the case of `CC(=O)Nc1ccc(NC(=O)c2c[nH]nc2-c2cc(Cl)c(O)cc2O)cc1` [Example 19], the IC50 in test [2] was above 50 µM.
Regarding `COC(=O)c1ccc(NC(=O)c2c[nH]nc2-c2cc(Cl)c(O)cc2O)cc1` [Example 20], the concentration for half-maximal inhibition (IC50) in test [2] was below 50 µM.
The same measure, in the same setting: for `NC(=O)c1ccc(NC(=O)c2c[nH]nc2-c2cc(Cl)c(O)cc2O)cc1` [Example 22] the value was below 50 µM; for `O=C(NCc1ccccc1)c1c[nH]nc1-c1cc(Cl)c(O)cc1O` [Example 23], above 50 µM.
`O=C(O)Cc1ccc(NC(=O)c2c[nH]nc2-c2cc(Cl)c(O)cc2O)cc1` [Example 24] came in with a 50% inhibitory concentration (IC50) in test [2] above 50 µM.
On the same count and under the same terms, for `COc1ccc(N(C)C(=O)c2c[nH]nc2-c2cc(Cl)c(O)cc2O)cc1` [Example 25] the value was above 50 µM; for `O=C(O)c1ccc(CNC(=O)c2c[nH]nc2-c2cc(Cl)c(O)cc2O)cc1` [Example 26], below 50 µM.
`Cc1ccc(CNC(=O)c2c[nH]nc2-c2cc(Cl)c(O)cc2O)cc1` [Example 27] displayed an IC50 in test [2] below 50 µM.
For `COc1ccc(CNC(=O)c2c[nH]nc2-c2cc(Cl)c(O)cc2O)cc1` [Example 28], the IC50 in test [2] is below 50 µM.
In test [2], `O=C(NCc1ccc(F)cc1)c1c[nH]nc1-c1cc(Cl)c(O)cc1O` [Example 29] registered a concentration for half-maximal inhibition (IC50) below 50 µM.
Still for that read-out and setting: the value for `O=C(NCc1ccc(Cl)cc1)c1c[nH]nc1-c1cc(Cl)c(O)cc1O` [Example 30] was below 50 µM.
Still for that read-out and setting: the value for `COc1cccc(CNC(=O)c2c[nH]nc2-c2cc(Cl)c(O)cc2O)c1` [Example 31] was below 50 µM; that for `O=C(NCc1cccc(C(F)(F)F)c1)c1c[nH]nc1-c1cc(Cl)c(O)cc1O` [Example 32] was below 50 µM; that for `CS(=O)(=O)c1ccc(CNC(=O)c2c[nH]nc2-c2cc(Cl)c(O)cc2O)cc1` [Example 33] was below 50 µM.
